The source of these data is US9750724B2, “Use of an aromatase inhibitor for the treatment of hypogonadism and related diseases” (Mereo BioPharma 2 Limited, priority 2011, dated 2017).

Like-named read-outs stand apart in the source and are kept apart here.

The subject of data set [1] is serum testosterone, estradiol, LH and FSH. Particulars: 2.5 mg weekly, cited from earlier work; for free testosterone: fixed dosing interval.
A short description of data set [2]: Single ascending dose study in pre- and post-menopausal women, pharmacokinetics. The data set is classed as in vivo, human. Particulars: female, human, in vivo, 2.5 mg. The text has this:
The drug concentration in plasma and/or serum samples can be determined by a number of different ways, e.g. HPLC or LC-MS/MS analyses. […]
A minimal toxic dose (MTD) was not reached. […] Table 3 presents the PK parameters based on preliminary analysis of the concentration-time profile obtained from this study.

A word on the Tmax: it is the time at which the peak concentration occurs. By AUC(0-t) is commonly meant the area under the concentration-time curve up to a stated or last time point. A word on the Cmax: it is the peak of the concentration-time curve. In general, half-life refers to how long it takes for the measured level to halve.

As for `N#Cc1ccc(C(c2ccc(C#N)cc2)n2cncn2)cc1` [Letrozole, letrozole], in data set [1] (12 OHH men), the “LH and FSH” value was “increased LH and FSH”; the total estradiol result is “suppressed total estradiol”. In addition, in data set [1] (12 OHH men, de Boer 2005, Loves 2008), the total testosterone result is “increased total testosterone into the normal range”. Moreover, the free testosterone entry in data set [1] is on record as “rose above the normal range in approximately half of the subjects”. Besides, the free testosterone entry in data set [1] (listed as letrozole) is given as “excessive free testosterone levels in approximately half the subjects”. In addition, the Tmax in data set [2] is 1 h. The compound further had an AUC(0-t) in data set [2] (AUC (0-tlast) Mean) of 1670 ng·h/mL. The compound further registered a Cmax in data set [2] (Cmax Mean) of 33.5 ng/mL. Also, the half-life in data set [2] (T1/2 Mean) was 69.6 h.
